{"source": "patent US10016486B1", "about": "“Methods and compositions using AMPK activators for pharmacological prevention of chronic pain” (ARIZONA BOARD OF REGENTS ON BEHALF OF THE UNIVERSITY OF …, priority 2013, dated 2018)", "key": {"AMPK": {"system": "AMPK", "details": "independent of upstream kinase LKB1; Lee et al., 2011; read-out: EC50, stimulation of AMPK kinase activity through direct activation; cited from earlier work"}, "Male ICR mice [1]": {"system": "Male ICR mice", "test": "Plantar incision model: hyperalgesic priming precipitated by intraplantar PGE2 on day 14", "type": "in vivo", "experimental": "(§1) Behavior testing: For the testing, animals were placed in acrylic boxes with wire mesh floors and allowed to habituate for approximately 1 h on all testing days. Paw withdrawal thresholds were measured using calibrated von Frey filaments (Stoelting, Wood Dale, Ill.) by stimulating the plantar aspect of left hind paw using the up-down method (Chaplan et al., 1994). Plantar incision and behavioral testing: Prior to surgery all animals were assessed for paw withdrawal thresholds. A mouse model of incisional pain was used for this study (Banik et al., 2006). […] Sham controls underwent the same procedure but without the incision. The skin was apposed with 2 sutures of […]. […] The paw withdrawal thresholds were again measured at 1 h, 3 h and 24 h following the PGE2 injection. Statistical Analysis and Data Presentation: Data are shown as means and the standard error of the mean (±SEM) of 6 animals (for behavioral studies). Graph plotting and statistical analysis used Graphpad Prism Version 5.03 (Graph Pad Software, Inc. San Diego, Calif., USA). Statistical evaluation was performed by one- or two-way analysis of variance (ANOVA), followed by appropriate post-hoc tests. The a priori level of significance at 95% confidence level was considered at p<0.05."}, "Male ICR mice [2]": {"system": "Male ICR mice", "test": "Plantar incision model: acute mechanical hypersensitivity (paw withdrawal thresholds, von Frey filaments)", "type": "in vivo", "experimental": "as §1"}, "Male ICR mice [3]": {"system": "Male ICR mice", "test": "Wound healing and wound closure after plantar incision (H & E staining)", "details": "maximal doses (resveratrol 10 μg intraplantar, metformin 200 mg/kg i.p., OSU53 10 or 30 μg intraplantar); for wound size vs vehicle treated group: Day 3 after plantar incision; for wound closure: Day 7 after plantar incision", "protocol": "Experimental animals: Male ICR mice (Harlan, 20-25 g) were used for the study.\nImmunohistochemistry: To determine re-epithelialization, plantar skin was excised from the left hind paw of mice either 3 days or 7 days following plantar incision surgery. The skin was immediately cryoprotected and frozen in O.C.T compound and sectioned (20 μm) on cryostat. The sections were then fixed in formalin and immersed in 0.1% hematoxylin for 3 minutes, washed in tap water, then immersed in 0.1% eosin for 3 minutes, and dehydrated through graded ethanol (Protocol from University of Michigan Center for Organogenesis). Finally sections were coverslipped with Permount (Fisher, Pittsburgh, Pa.). The sections were imaged and the width between 2 epithelial edges was measured using Olympus BX51 microscope."}, "[4]": {"system": "translation regulation signaling pathways and nascent protein synthesis in injured nerves neurons", "details": "previously demonstrated; cited from earlier work"}, "[5]": {"system": "neuropathic allodynia induced by peripheral nerve injury", "details": "previously demonstrated; cited from earlier work"}, "Male ICR mice [6]": {"system": "Male ICR mice", "details": "local injection of resveratrol into the hind paw following plantar incision; previously demonstrated; cited from earlier work"}, "Male ICR mice [7]": {"system": "Male ICR mice", "details": "local injection of resveratrol into the hind paw following plantar incision; previously demonstrated; cited from earlier work", "remark": "listed apart in the source"}, "[8]": {"system": "ERK and mTOR signaling in sensory neurons", "details": "time- and concentration-dependent; previously demonstrated; cited from earlier work"}, "[9]": {"details": "general statement; cited from earlier work"}, "[10]": {"details": "OSU53 10 or 30 μg injected locally into the hind paw around the incision"}, "[11]": {"details": "metformin lower doses (30, 100, 150) intra-peritoneal for 4 days starting 2 days prior to surgery"}, "[12]": {"details": "metformin maximal dose 200 mg/kg intra-peritoneal for 4 days starting 2 days prior to surgery"}}, "note": "Entries after “also recorded” stand apart in the source; their conditions may differ.", "data": [{"smiles": "CC1(CN2C(=O)S/C(=C\\c3ccc(NS(=O)(=O)c4ccc([N+](=O)[O-])c(C(F)(F)F)c4)cc3)C2=O)CCCCC1", "note": "[OSU53]", "values": [{"measurement": "EC50", "setting": "AMPK", "result": 300, "unit": "nM"}, {"measurement": "hyperalgesic priming after PGE2 injection on day 14", "setting": "Male ICR mice [1]; [10]", "result": "significantly blocked; also recorded: dose-relatedly blocked"}, {"measurement": "plantar incision-induced acute mechanical hypersensitivity", "setting": "Male ICR mice [2]; [10]", "result": "significantly blocked; also recorded: dose-relatedly blocked"}]}, {"smiles": "CN(C)C(=N)N=C(N)N", "note": "[metformin]", "values": [{"measurement": "wound size vs vehicle treated group", "setting": "Male ICR mice [3]", "result": "No differences"}, {"measurement": "wound closure", "setting": "Male ICR mice [3]", "result": "completely closed"}, {"measurement": "translation regulation signaling pathways and nascent protein synthesis in injured nerves neurons", "setting": "[4]", "result": "inhibited"}, {"measurement": "plantar incision-induced hyperalgesic priming precipitated by PGE2", "setting": "Male ICR mice [1]; metformin 30, 100, 150 or 200 mg/kg intra-peritoneal for 4 days (FIG. 3 legend, all doses together)", "result": "significantly blocked"}, {"measurement": "hyperalgesic priming following PGE2 injection on day 14", "setting": "Male ICR mice [1]; [11]", "result": "significantly blocked"}, {"measurement": "hyperalgesic priming following PGE2 injection on day 14", "setting": "Male ICR mice [1]; [12]", "result": "prevented"}, {"measurement": "plantar incision-induced acute hypersensitivity", "setting": "Male ICR mice [2]; metformin 30, 100, 150 or 200 mg/kg intra-peritoneal for 4 days (FIG. 2 legend, all doses together)", "result": "significantly blocked"}, {"measurement": "plantar incision-induced acute hypersensitivity", "setting": "Male ICR mice [2]; metformin alone, 150 μg intra-peritoneal for 4 days starting 2 days prior to surgery (sub-efficacious dose)", "result": "blunted acute hypersensitivity compared to vehicle treated mice but the effect was not significant"}, {"measurement": "plantar incision-induced acute mechanical hypersensitivity", "setting": "Male ICR mice [2]; [11]", "result": "not effective"}, {"measurement": "plantar incision-induced acute mechanical hypersensitivity", "setting": "Male ICR mice [2]; [12]", "result": "prevented"}, {"measurement": "neuropathic allodynia induced by peripheral nerve injury", "setting": "[5]", "result": "resolution of neuropathic allodynia"}]}, {"smiles": "N#Cc1c(O)c2c(-c3ccc(-c4ccccc4O)cc3)csc2[nH]c1=O", "note": "[A-769662]", "values": [{"measurement": "translation regulation signaling pathways and nascent protein synthesis in injured nerves neurons", "setting": "[4]", "result": "inhibited"}, {"measurement": "hyperalgesic priming following PGE2 injection on day 14", "setting": "Male ICR mice [1]; A-769662 30 mg/kg intra-peritoneal for 4 days starting 2 days prior to surgery", "result": "significantly blocked"}, {"measurement": "plantar incision-induced acute mechanical hypersensitivity", "setting": "Male ICR mice [2]; A-769662 30 mg/kg intra-peritoneal for 4 days starting 2 days prior to surgery, 30 mg/kg", "result": "did not block; also recorded: not effective"}, {"measurement": "neuropathic allodynia induced by peripheral nerve injury", "setting": "[5]", "result": "resolution of neuropathic allodynia"}]}, {"smiles": "Oc1ccc(C=Cc2cc(O)cc(O)c2)cc1", "note": "[resveratrol]", "values": [{"measurement": "hyperalgesic priming induced by incision", "setting": "Male ICR mice [6]", "result": "attenuates; also recorded: dose-relatedly reverses"}, {"measurement": "incision-mediated mechanical hypersensitivity", "setting": "Male ICR mice [7]", "result": "attenuates; also recorded: dose-relatedly reverses"}, {"measurement": "ERK and mTOR signaling in sensory neurons", "setting": "[8]", "result": "profoundly inhibits"}, {"measurement": "wound size vs vehicle treated group", "setting": "Male ICR mice [3]", "result": "no differences"}, {"measurement": "wound closure", "setting": "Male ICR mice [3]", "result": "completely closed"}, {"measurement": "bioavailability", "setting": "[9]", "result": "lacks bioavailability"}, {"measurement": "plantar incision-induced hyperalgesic priming precipitated by PGE2", "setting": "Male ICR mice [1]; topical resveratrol 100 μg at the time of incision and 1 day post incision, PGE2 100 ng on day 14", "result": "significantly blocked; also recorded: prevented the development of hyperalgesic priming"}, {"measurement": "plantar incision-induced hyperalgesic priming precipitated by PGE2", "setting": "Male ICR mice [1]; topical resveratrol 100 μg once immediately following incision, PGE2 100 ng on day 14", "result": "abolished; also recorded: prevented the development of hyperalgesic priming"}, {"measurement": "plantar incision-induced acute hypersensitivity", "setting": "Male ICR mice [2]; resveratrol alone, 3 μg injected in hind paw around incision on day of surgery and 24 hrs post-surgery (sub-efficacious dose)", "result": "blunted acute hypersensitivity compared to vehicle treated mice but the effect was not significant"}, {"measurement": "plantar incision-induced acute mechanical hypersensitivity", "setting": "Male ICR mice [2]; topical resveratrol cream (2 mg/ml in PEG), 100 μg, applied once immediately following incision, vs vehicle", "result": "blunted; also recorded: blunted hypersensitivity though not significant"}, {"measurement": "plantar incision-induced acute mechanical hypersensitivity", "setting": "Male ICR mice [2]; topical resveratrol cream, 100 μg, applied twice: immediately following incision and 24 hrs following incision, vs vehicle", "result": "significantly blocked; also recorded: significantly attenuated"}]}]}
